In brackets after ≈: the same amount, converted by molar mass. Read-outs that look alike come from different tables or passages of the source.
Legend:
[1] = Approximate solubility at RT by stepwise solvent addition; type: physicochemical
Protocol: The approximate solubility of (S)-4-((2-methoxyethyl)(4-(5,6,7,8-tetrahydro-1,8-naphthyridin-2-yl)butyl)amino)-2-(quinazolin-4-ylamino)butanoic acid was determined at RT. Approximately 2 mg of solids were added into a 3-mL glass vial. Different solvents were then added stepwise (50-50-200-700 μL for each step) into the vials and stirred until the solids were dissolved or a total volume of 1 mL was reached.
The approximate solubility of Form I was determined at RT. Approximately 2 mg of solids were added into 3-mL glass vials. Different solvents were then added stepwise (50-50-200-700 μL for each step) into the vials until the solids were dissolved or a total volume of 1 mL was reached.

[2] = biological target: recombinant human integrin αvβ6 (Homo sapiens, UniProt P06756+P18564); experiment: Solid phase integrin αvβ6 binding assay; details: TGFβ1 LAP binding to coated integrin, four-parameter logistic regression; read-out: IC50 for αvβ6 integrin inhibition
Protocol: Microplates were coated with recombinant human integrin αvβ6 (2 μg/mL) in PBS (100 μL/well 25° C., overnight). The coating solution was removed, washed with wash buffer (0.05% Tween 20; 0.5 mM MnCl2; in 1×TBS). The plate was blocked with 200 μL/well of Block Buffer (1% BSA; 5% sucrose; 0.5 mM MnCl2; in 1×TBS) at 37° C. for 2 h. Dilutions of testing compounds and recombinant TGFβ1 LAP (0.67 μg/mL) in binding buffer (0.05% BSA; 2.5% sucrose; 0.5 mM MnCl2; in 1×TBS) were added. The plate was incubated for 2 hours at 25° C., washed, and incubated for 1 hour with Biotin-Anti-hLAP. Bound antibody was detected by peroxidase-conjugated streptavidin. The IC50 values for testing compounds were calculated by a four-parameter logistic regression. The IC50 value obtained for αvβ6 integrin inhibition for (S)-4-((2-methoxyethyl)(4-(5,6,7,8-tetrahydro-1,8-naphthyridin-2-yl)butyl)amino)-2-(quinazolin-4-ylamino)butanoic acid was <50 nM.

[3] = Dynamic vapor sorption (DVS); type: physicochemical; details: 4.5 g scale batch
Protocol: DVS was measured via a SMS (Surface Measurement Systems) DVS Intrinsic. The relative humidity at 25° C. were calibrated against the deliquescence point of LiCl, Mg(NO3)2 and KCl.
Form I on 4.5 g scale was obtained via slurrying 4.5 g amorphous freeform of (S)-4-((2-methoxyethyl)(4-(5,6,7,8-tetrahydro-1,8-naphthyridin-2-yl)butyl)amino)-2-(quinazolin-4-ylamino)butanoic acid and an equimolar amount of 85% phosphoric acid (1.05 g) in anhydrous EtOH (≥99.7%) (112 mL) at RT and seeded with around 1 wt % Form I seed. The product was analyzed by XRPD, DSC, TGA, DVS, ^1H NMR, and HPLC. […] Based on HPLC/IC analysis, the molar ratio of API:phosphoric acid was 1:1.

[4] = Heating experiment, solid form checked by XRPD; type: physicochemical; details: for solid form after heating: after heating to 150° C.

Sequence of recombinant human integrin αvβ6 (P06756 31-992 limits assumed): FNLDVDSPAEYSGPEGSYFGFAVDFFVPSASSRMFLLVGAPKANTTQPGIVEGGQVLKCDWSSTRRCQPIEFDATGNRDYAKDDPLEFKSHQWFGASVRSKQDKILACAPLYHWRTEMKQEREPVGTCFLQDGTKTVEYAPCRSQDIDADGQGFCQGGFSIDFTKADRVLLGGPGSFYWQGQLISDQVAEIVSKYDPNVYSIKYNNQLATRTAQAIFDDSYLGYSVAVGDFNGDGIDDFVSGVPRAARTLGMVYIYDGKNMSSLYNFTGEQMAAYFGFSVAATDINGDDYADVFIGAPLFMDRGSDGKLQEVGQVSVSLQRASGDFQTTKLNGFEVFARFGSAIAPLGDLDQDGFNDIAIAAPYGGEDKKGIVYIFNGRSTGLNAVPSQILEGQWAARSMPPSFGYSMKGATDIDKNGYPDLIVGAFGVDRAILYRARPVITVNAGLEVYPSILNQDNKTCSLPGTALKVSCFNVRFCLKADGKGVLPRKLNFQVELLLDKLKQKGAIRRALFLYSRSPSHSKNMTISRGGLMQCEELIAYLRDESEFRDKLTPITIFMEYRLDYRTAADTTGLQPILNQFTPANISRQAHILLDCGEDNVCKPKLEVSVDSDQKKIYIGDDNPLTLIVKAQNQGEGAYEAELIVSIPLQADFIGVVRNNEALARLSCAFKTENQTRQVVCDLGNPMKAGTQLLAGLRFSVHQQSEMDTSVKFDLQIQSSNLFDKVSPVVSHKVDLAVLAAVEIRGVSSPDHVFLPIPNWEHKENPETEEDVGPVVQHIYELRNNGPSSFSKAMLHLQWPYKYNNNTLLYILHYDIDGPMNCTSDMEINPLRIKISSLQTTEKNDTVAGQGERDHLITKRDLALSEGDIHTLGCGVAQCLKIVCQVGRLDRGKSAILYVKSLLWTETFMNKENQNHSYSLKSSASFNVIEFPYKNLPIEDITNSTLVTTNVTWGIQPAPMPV
Sequence of recombinant human integrin αvβ6 (P18564 22-707 limits assumed): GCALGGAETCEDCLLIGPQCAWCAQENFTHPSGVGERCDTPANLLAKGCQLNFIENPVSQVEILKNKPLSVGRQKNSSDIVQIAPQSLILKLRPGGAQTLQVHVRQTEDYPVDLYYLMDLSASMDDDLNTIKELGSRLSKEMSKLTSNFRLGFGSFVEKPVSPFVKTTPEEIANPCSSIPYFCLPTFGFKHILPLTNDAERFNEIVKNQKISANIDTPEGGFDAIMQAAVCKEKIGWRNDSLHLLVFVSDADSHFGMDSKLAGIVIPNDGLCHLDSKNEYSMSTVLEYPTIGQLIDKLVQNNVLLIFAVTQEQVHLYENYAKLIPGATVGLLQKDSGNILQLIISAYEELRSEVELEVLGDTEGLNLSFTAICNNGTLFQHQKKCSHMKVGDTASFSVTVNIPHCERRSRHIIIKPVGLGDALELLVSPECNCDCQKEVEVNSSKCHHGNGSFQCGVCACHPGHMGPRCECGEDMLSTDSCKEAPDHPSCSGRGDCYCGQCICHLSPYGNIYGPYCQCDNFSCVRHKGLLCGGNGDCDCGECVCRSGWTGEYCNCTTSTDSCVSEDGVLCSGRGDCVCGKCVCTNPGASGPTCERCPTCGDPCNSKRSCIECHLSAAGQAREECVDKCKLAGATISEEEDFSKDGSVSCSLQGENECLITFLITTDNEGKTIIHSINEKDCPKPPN

## COCCN(CCCCc1ccc2c(n1)NCCC2)CC[C@H](Nc1ncnc2ccccc12)C(=O)O [(S)-4-((2-methoxyethyl)(4-(5,6,7,8-tetrahydro-1,8-naphthyrid] [(S)-4-((2-methoxyethyl)(4-(5,6,7,8-tetrahydro-1,8-naphthyridin-2-yl)butyl)amino)-2-(quinazolin-4-ylamino)butanoic acid]
[1]; 1,4-Dioxane
  Solubility: S > 42.0 mg/mL
[1]; DCM
  Solubility: S > 38.0 mg/mL
[1]; DMSO
  Solubility: S > 42.0 mg/mL
[1]; EtOH
  Solubility: S > 44.0 mg/mL
[1]; IPA
  Solubility: S > 48.0 mg/mL
[1]; THF
  Solubility: S > 32.0 mg/mL

## COCCN(CCCCc1ccc2c(n1)NCCC2)CC[C@H](Nc1ncnc2ccccc12)C(=O)O [(S)-4-((2-methoxyethyl)(4-(5,6,7,8-tetrahydro-1,8-naphthyridin-2-yl)butyl)amino)-2-(quinazolin-4-ylamino)butanoic acid]
[1]; ACN, organic solvent or mixture, thermodynamic from solid, ACN, read-out: Solubility
  Solubility: 1900 to 6300 µg/mL (≈ 3.86 to 12.8 mM)
[1]; CPME, organic solvent or mixture, thermodynamic from solid, CPME, read-out: Solubility
  Solubility: 2600 to 8700 µg/mL (≈ 5.28 to 17.7 mM)
[1]; EtOAc, organic solvent or mixture, thermodynamic from solid, EtOAc, read-out: Solubility
  Solubility: 2100 to 7000 µg/mL (≈ 4.26 to 14.2 mM)
[1]; IPAc, organic solvent or mixture, thermodynamic from solid, IPAc, read-out: Solubility
  Solubility: 2300 to 7700 µg/mL (≈ 4.67 to 15.6 mM)
[1]; MIBK, organic solvent or mixture, thermodynamic from solid, MIBK, read-out: Solubility
  Solubility: 2500 to 8300 µg/mL (≈ 5.07 to 16.8 mM)
[1]; MTBE, organic solvent or mixture, thermodynamic from solid, MTBE, read-out: Solubility
  Solubility: < 2000 µg/mL
[1]; MeOH, organic solvent or mixture, thermodynamic from solid, MeOH, read-out: Solubility
  Solubility: > 52000 µg/mL
[1]; Toluene, organic solvent or mixture, thermodynamic from solid, Toluene, read-out: Solubility
  Solubility: 1900 to 6300 µg/mL (≈ 3.86 to 12.8 mM)
[1]; n-Heptane, organic solvent or mixture, thermodynamic from solid, n-Heptane, read-out: Solubility
  Solubility: < 2200 µg/mL
[2]
  IC50: < 50 nM

## COCCN(CCCCc1ccc2c(n1)NCCC2)CC[C@H](Nc1ncnc2ccccc12)C(=O)O [Form I, (S)-4-((2-methoxyethyl)(4-(5,6,7,8-tetrahydro-1,8-naphthyridin-2-yl)butyl)amino)-2-(quinazolin-4-ylamino)butanoic acid]
[3]; 25° C./80% RH
  water absorption: 16.4%
[3]; after DVS test
  state after the DVS test: deliquescent
[4]; after heating to 110° C.
  form change after heating: No form changes
[4]
  solid form after heating: amorphous
[1]; 1,4-Dioxane
  Solubility: S < 1.7 mg/mL
[1]; 2-MeTHF
  Solubility: S < 2.1 mg/mL
[1]; ACN
  Solubility: S < 1.6 mg/mL
[1]; Acetone
  Solubility: S < 1.9 mg/mL
[1]; CPME
  Solubility: S < 1.9 mg/mL
[1]; DCM
  Solubility: S < 2.8 mg/mL
[1]; EtOAc
  Solubility: S < 1.7 mg/mL
[1]; H2O
  Solubility: S > 56.0 mg/mL
[1]; IPA
  Solubility: S < 2.2 mg/mL
[1]; IPAc
  Solubility: S < 2.6 mg/mL
[1]; MEK
  Solubility: S < 2.4 mg/mL
[1]; MIBK
  Solubility: S < 2.8 mg/mL
[1]; MTBE
  Solubility: S < 2.1 mg/mL
[1]; MeOH
  Solubility: S > 52.0 mg/mL
[1]; THF
  Solubility: S < 1.6 mg/mL
[1]; Toluene
  Solubility: S < 2.2 mg/mL
[1]; n-Heptane
  Solubility: S < 2.1 mg/mL

## COCCN(CCCCc1ccc2c(n1)NCCC2)CC[C@H](Nc1ncnc2ccccc12)C(=O)O [Form II, (S)-4-((2-methoxyethyl)(4-(5,6,7,8-tetrahydro-1,8-naphthyridin-2-yl)butyl)amino)-2-(quinazolin-4-ylamino)butanoic acid]
[4]
  solid form after heating: amorphous

Reference: patent publication US12637462B2, “Integrin inhibitor and uses thereof” (Pliant Therapeutics, Inc., priority 2020, dated 2026)
